Data from patent publication US20110294794A1, “TREATMENT OF PROTEINOPATHIES USING A FARNESYL TRANSFERASE INHIBITOR” (Link Medicine Corporation, priority 2008, published 2011).
Entries after “also recorded” stand apart in the source; their conditions may differ.

Tests used:
α-synuclein = test: Masliah D-line human WT α-synuclein transgenic mouse, α-synuclein immunoreactivity / ELISA; format: in vivo; settings: for α-synuclein deposition in cortex and hippocampus: three months (FIG. 9a); for number of α-synuclein positive neurons in the brain: higher-dose trial (FIG. 2A)
Experimental: Animals and treatments: Male and female human WT alpha-synuclein over-expressing transgenic mice^32 at 6 months of age were given vehicle (10% beta-cyclodextrin) or LNK-754-TS (0.09, 0.9 and 9 mg/kg) per oral gavage twice daily for 3 months or animals at 7 months of age were given vehicle (2.5% beta-cyclodextrin) or LNK-754-TS (2 mg/kg) once every three days for 3 months. Male and female TAU transgenic mice expressing TAU441 bearing the missense mutations V337M^50 and R406W under the control of the murine Thy-1 promoter with a CB6xC57BL/6 background were 5 months old at the time when the oral treatment for three months with LNK-754-TS (0.9 and 0.09 mg/kg) as well as vehicle (2.5% beta-cyclodextrin) was started. Female human APP/PS1 (APP (London V7171)/PS1(A246E)) over-expressing transgenic mice were treated with LNK-754-TS (0.9 mg/kg) or vehicle (2.5% beta-cyclodextrin) for 2 months or 12 days.
Immunohistochemistry and quantification of stained cells: For evaluation of α-synuclein immunoreactivity (IR), 5 sagittal cryo-cut sections (10 μm slice thickness) from five different layers were used for counting of IR cells in the cortex and hippocampus. Brain sections were stained with a monoclonal human α-synuclein specific antibody (Alexis®; Cat# 804-258-L001; dilution 1:5), followed by a secondary Ab Cy 2-Goat Anti-Rat (Jackson ImmunoResearch®; dilution 1:200). IR positive cells were quantified using specialized image analysis software (Image Pro Plus, version 4.5.1.29). For Tau transgenic animals, 5 μm thick coronal paraffin sections were stained with the monoclonal mouse anti-human TAU-antibodies (AT180—1:100; HT—1:500) and visualized using an anti-mouse Cy3 secondary antibody (1:500, Jackson laboratories®). Images were evaluated with ImageProPlus (version 6.2) image analysis software. For APP/PS1 transgenic animals sagittal hemisections (40 μm) were collected and processed for Aβ immunohistochemistry using an 6E10 antibody, Thioflavin-S staining Primary antibodies were detected by the ABC method.
ELISA quantification of α-Synuclein in the α-Synuclein transgenic animals: Brain homogenate was centrifuged and the supernatant saved as fraction F1. The pellet was washed then resuspended and saved as fraction F2. Plates (Nunc, 464718) were coated with SYN-1 (1:1000, BD Transduction Labs, 610787). Monomeric recombinant α-synuclein was included as an internal standard. Biotinylated antibody FL-140 (1:300, Santa Cruz Biotechnology, sc-10717-B) and ExtrAvidin-Alkaline phosphatase (3:5000, Sigma, E2636) was added followed by pNPP substrate solution (Sigma, N1891). Raw absorbance (405 nm) was then normalized to the total protein concentration of each sample. In the APP/PS1 transgenic animal, brains were homogenized and the supernatant, Faction 1, was separated from the pellet. The pellets were further processed with addition of NP40 and Triton X-100. The supernatant was separated from the pellet as the insoluble membrane, Fraction 2, and was dissolved in 8M Guanidine. To quantify the amount of human Aβ-40 and Aβ-42, ELISA kits were used (The Genetics Company, Zurich, Switzerland).
In FIG. 2 is shown efficacy data for LNK-754-TS in the Masliah D-line transgenic α-synuclein mouse (an accepted model of synucleinopathies). Two trials are shown, the first (FIG. 2A) at higher doses of LNK-754-TS: 45 mg/kg and 9 mg/kg. […] The second trial (FIG. 2B) explores the low dose range for efficacy in the α-synuclein models. […]
After dosing with LNK-754-TS for three months (twice daily at 0.09 mg/kg or 0.9 mg/kg), α-synuclein accumulation in the brain was analyzed by immunohistochemical (human specific α-synuclein immunoreactivity) and biochemical (α-synuclein ELISA) means. […]

[1] = Pharmacokinetics of LNK-754-TS in mice, oral administration; format: in vivo, mouse; settings: 9 mg/kg, 20% beta-cyclodextrin
Excerpt: In the experimental data represented in Table 2A, a different method of drug delivery is used (oral) than in the experiment represented in FIG. 3. The best way to compare the relative coverage of the two delivery methods (oral and continuous infusion) is by comparing area-under-the-curve (AUC) values. We can compare the calculated AUC values for the continuous infusion oncology study presented in FIG. 3 and the AUC values associated with the synuclein model doses in the table. […] The AUCs of orally dosed LNK-754-TS at 0.9 mg/kg and at 0.09 mg/kg QD are 34.6 and […], respectively.
The pharmacokinetic profiles of LNK-754-TS and Zarnestra® were analyzed using methods known in the art. The results are shown in FIGS. 13-14 and the tables below.

LC3 mRNA = LC3 mRNA (qPCR) in differentiated SH-SY5Y cells; format: cell-based, human
Experimental: Cell culture and immunocytochemistry: SH-SY5Y cells were grown in DMEM medium supplemented with 10% FBS and 1% pen/strep at 37° C. and 5% CO2. Cells were differentiated with 10 μM retinoic acid for 48 hr, then treated with the either rapamycin (100 nM or 1 μM) or with 100 nM of either LNK-754-TS or Tipifarnib for 48-72 hr. Cells were then fixed with 4% paraformaldehyde and stained for LC3 (Novus biological, NB100-2331, dilution 1:800) followed by secondary Alexa-564 anti-Rabbit (A-11011).
Quantitative real-time PCR: Gene expression profiles were done by qPCR on series of known autophagy genes. RNA was extracted with Tri-reagent (Sigma), and cDNAs generated using iScript (Biorad). qPCR analysis was carried out in a 96 well plate using an iCycler (BioRad, Hercules, Calif.), and iQ SYBR Green Supermix (Biorad) according to the manufacturer's specifications.
Such increases in LC3 mRNA levels are associated in the literature with stimulation of macroautophagy. This supports the hypothesis that at doses as low as 1 nM in this in vitro system there is stimulation of autophagy in these cells.
Autophagy was measured in a neuroblastoma cell culture system by three distinct approaches: quantitation of autophagy-related mRNA's, immunofluorescence microscopy of autophagosomes, and biochemical detection of the microtubule-associated protein 1 light chain 3 (LC3) a key protein that is required for autophagosome formation. Differentiated human neuroblastoma cells (SH-SY5Y) were treated for 72 hr with LNK-754-TS (0.01-100 nM), Zarnestra® (also referred to herein as tipifarnib) (100 nM) or rapamycin (1 μM).

[2] = three-month dosing trial (FIG. 9c)
[3] = twice daily at 0.09 mg/kg or 0.9 mg/kg, three months

C#Cc1cccc(-c2cc(=O)n(C)c3ccc([C@](O)(c4ccc(Cl)cc4)c4cncn4C)cc23)c1 [LNK-754-TS, (R)-6-[(4-chlorophenyl)-hydroxyl-(1-methyl-1-H-imidazol-5-yl)-methyl]-4-(3-ethynylphenyl)-1-methyl-2-(1H)-quinonlinone (2S,3S)-dihydroxybutanedioate]
α-synuclein deposition in cortex and hippocampus (α-synuclein; 0.09 mg/kg twice every 24 hr): halts deposition | α-synuclein deposition in cortex and hippocampus (α-synuclein; 0.9 mg/kg twice every 24 hr): halts deposition | cortical α-synuclein immunoreactivity vs. baseline and vehicle (α-synuclein; 2 mg/kg once every 72 hr, three months (FIG. 9b)): significantly lower; also recorded: significantly reduces | number of α-synuclein positive neurons in the brain (α-synuclein; 9 mg/kg PO BID 3 months): significant reduction | number of α-synuclein IR cells in the hippocampus vs. saline (α-synuclein; 9 mg/kg group, PO BID 3 months, lower-dose trial (FIG. 2B)): significance level was not reached | number of α-synuclein positive neurons in the brain (α-synuclein; 45 mg/kg PO BID 3 months): not significantly effective | efficacious dose in the α-synuclein transgenic mouse (α-synuclein; PO BID 3 months): ≤ 9 mg/kg | number of α-synuclein IR cells in the hippocampus vs. saline (α-synuclein; all applied dosages except 9 mg/kg, PO BID 3 months (FIG. 2B)): significant decrease | effect on neuronal architecture (NeuN) (α-synuclein; [2]): lack of effect | reduction of α-synuclein immunoreactivity, representative hippocampal slices (α-synuclein; [2]): ca. 50% | astrocytosis: GFAP staining (α-synuclein; [3]): unchanged | drug-dependent toxicity (α-synuclein; [3]): None of the treated animals showed any evidence | neuronal loss: NeuN staining and brain volume (α-synuclein; [3]): unchanged | synaptic damage: synaptophysin staining (α-synuclein; [3]): unchanged | α-synuclein accumulation in the brain (immunoreactivity and ELISA) (α-synuclein; [3]): clearly reduced | Cmax ([1]; BID day 1): 1385 ng/mL | Cmax ([1]; BID day 5): 1485 ng/mL | LC3 mRNA level (LC3 mRNA; 0.01-100 nM, 72 hr (FIG. 8a)): upregulated; also recorded: increased | potency of LC3 transcript upregulation relative to the other two compounds (LC3 mRNA; 72 hr, vs. Zarnestra and rapamycin): most potently | levels of mRNA of LC3 (LC3 mRNA; doses between 1 and 100 nM, 72 hours (FIG. 4)): significant increases
